O=C(O)c1c(O)cccc1O
solubility (mole fraction)
Details | 278.15 K | 283.15 K | 288.15 K | 293.15 K | 298.15 K | 303.15 K | 308.15 K | 313.15 K | 318.15 K
in ethanol | 0.221 | 0.234 | 0.245 | 0.258 | 0.273 | 0.286 | 0.294 | 0.306 | 0.318
in isopropanol | 0.225 | 0.24 | 0.254 | 0.268 | 0.28 | 0.292 | 0.303 | 0.315 | 0.323
in methanol | 0.2 | 0.214 | 0.227 | 0.247 | 0.261 | 0.276 | 0.284 | 0.3 | 0.314
in n-butanol | 0.189 | 0.202 | 0.216 | 0.23 | 0.245 | 0.26 | 0.275 | 0.29 | 0.306
